This note sets out measurements from patent US20220323479A1, “COMPOSITIONS AND METHODS USING ADENOSYLCOBALAMIN” (SOCIETE DES PRODUITS NESTLE S.A., priority 2019, published 2022).

SMILES strings stand for the structures.

Assay [1] concerns human skeletal muscle myotubes. Put plainly: Oxygen consumption rate / ATP-synthase-dependent respiration (Seahorse XF96) in epibatidine-stimulated myotubes. It counts as cell-based. To be noted: myotubes treated 3 h, stimulated with epibatidine 10 μM, oligomycin 2.5 μg/ml; vs control. On the procedure: (§1) To test the effect of adenosyl B12 and methyl B12 in human muscle myotubes, oxygen consumption rate and ATP production were measured in human myotubes, differentiated from primary adult muscle cells (HSMM). HSMM were purchased from Lonza (https://bioscience.lonza.com). HSMM were isolated from the upper arm or leg muscle tissue of normal donors and used after the second passage. HSMM were seeded in 96-well plates at a density of 12000 cells per well in SKM-M medium (ZenBio). Myotubes were differentiated from HSMM by growing the cells in DMEM/F-12 (Gibco) containing 2% horse serum, for 4 days. From the second growing day, the medium was not containing B12.
Oxygen consumption was measured using a XF96 instrument (Seahorse Biosciences, North Billerica, Mass., USA). After differentiation, respiration rates were determined every 7 min at 37° C. Myotubes were stimulated with 10 μM epibatidine. […] ATP synthase-dependent respiration was calculated as the difference in respiration rate before and after the addition of oligomycin.
(§2) For treatment, compounds were directly added to the cell culture or myotubes cultures 3 hours (acute treatment) or 3 days (chronic treatment) before measurements. Custom module analysis based on Excel (Microsoft) and GraphPad Prism 7.02 (GraphPad) software was used for quantification.

In assay [2] the test system is human skeletal muscle myotubes. As to the kind of experiment: Luciferase-based ATP production evoked by epibatidine in myotubes. It counts as cell-based. The note with it: vs control. On the procedure: as §1
ATP measurements were carried out using myotubes infected with the adenovirus (from Sirion biotech) expressing luciferase. Luminescence was measured at the Cytation 3 cell imaging reader (Biotek). Relative changes of ATP were measured 48 h after infection in a luminometer, in standard medium containing 145 mM NaCl, 5 mM KCl, 1 mM MgCl2, 1 mM CaCl2), 10 mM glucose and 10 mM Hepes, pH 7.4. Luciferine (5 μM) was added to promote ATP-dependent reaction and basal luminescence was normalized as 100%. ATP production was stimulated in myotubes by addition of epibatidine.
as §2

For assay [3], the system named is oxidative phosphorylation genes in skeletal muscle. As to the kind of experiment: Gene-set enrichment and network analysis of skeletal muscle (tibialis anterior) RNA of treated old rats. It counts as in vivo, Male Wistar rats. To be noted: 1 mg/kg s.c. 3 times a week, 5 months; for network analysis of regulated genes (protein-protein interactions): interaction score >0.9. The method, then: (§3) Male Wistar rats aged 3 months or 19 months were treated with adenosylcobalamin (Adenosyl-B12) or methylcobalamin (Methyl-B12) at a dose of 1 mg/kg 3 times a week during 5 months by subcutaneous injection. Control animals were injected with equivalent volumes of saline. After 5 months treatment, adult rats were defined as 8 months old rats and old (aged) animals were defined as 24 old rodents.
Total RNA was extracted from tibialis anterior using the Agencourt RNAdvance Tissue Kit. For Gene-set enrichment analysis and Network analysis, RNA quantity was measured with Ribogreen and RNA quality was checked using the Standard Sensitivity RNA Analysis Kit on a Fragment Analyzer. All cRNA targets were synthesized using the IVT plus kit and fragmented according to the Affymetrix protocol, based on the Eberwine T7 procedure. Briefly, 100 ng of total RNA were used to produce double-stranded cDNA, followed by in vitro transcription, and cRNA labeling with biotin. Gene-set enrichment analysis (GSEA) of skeletal muscle describe the significant pathway differentially expressed (FIG. 5A). For Network analysis (FIG. 5B), nodes with an interaction score >0.9 are represented in different gray levels and aggregated by biological function.

In a further assay the test system is aged rats. As to the kind of experiment: Rotarod muscle performance / locomotor coordination. To be noted: 1 mg/kg s.c. 3 times a week, 5 months, vs control. It counts as in vivo, Male Wistar rats. The method, then:
as §3
To determine muscle performance (FIG. 6), locomotor coordination was measured using rotarod device. […] The time of activity on rotarod is measured in seconds. Each animal was recorded 3 times, with a resting period of at least 10 min between each trial.
For orientation: In the rotarod test animals must keep their balance on a rotating rod.

Regarding `C/C1=C2/[N-][C@H]([C@H](CC(N)=O)[C@@]2(C)CCC(=O)NC[C@@H](C)OP(=O)([O-])O[C@H]2[C@@H](O)[C@@H](n3cnc4cc(C)c(C)cc43)O[C@@H]2CO)[C@]2(C)N=C(/C(C)=C3N=C(/C=C4N=C1[C@@H](CCC(N)=O)C\4(C)C)[C@@H](CCC(N)=O)[C@]\3(C)CC(N)=O)[C@@H](CCC(N)=O)[C@]2(C)CC(N)=O.[CH2-][C@H]1O[C@@H](n2cnc3c(N)ncnc32)[C@H](O)[C@@H]1O.[Co]` [Adenosyl B12, adenosylcobalamin], in assay [1], the “ATP-synthase-dependent component of the respiration” value was “increases the ATP-synthase-dependent component of the respiration”. Moreover, the “epibatine-stimulated ATP production” value in assay [2] (acute treatment, 3 h) was “potentiates epibatine-stimulated ATP production”; in assay [2] (chronic treatment, 3 days), “potentiates epibatine-stimulated ATP production”. Besides, in assay [3] (Adenosyl-B12 vs Methyl-B12), the “gene expression signature of oxidative phosphorylation genes (enrichment plot analysis, GSEA)” value is listed as “specifically shows gene expression signature of oxidative phosphorylation genes in skeletal muscle”. In assay [3], the “network analysis of regulated genes (protein-protein interactions)” value was “distinguished several clusters linked to mitochondrial respiratory chain complexes, oxidative phosphorylation and mitochondrial function”. Further, the “time of activity on rod” value with aged rats is “significantly increased”.

As to `C/C1=C2/[N-][C@H]([C@H](CC(N)=O)[C@@]2(C)CCC(=O)NC[C@H](C)OP(=O)([O-])O[C@H]2[C@@H](O)[C@@H](n3cnc4cc(C)c(C)cc43)O[C@@H]2CO)[C@]2(C)N=C(/C(C)=C3N=C(/C=C4N=C1[C@@H](CCC(N)=O)C\4(C)C)[C@@H](CCC(N)=O)[C@]\3(C)CC(N)=O)[C@@H](CCC(N)=O)[C@]2(C)CC(N)=O.[CH3-].[Co+3]` [methyl B12, methylcobalamin, reference compound], the “ATP-synthase-dependent component of the respiration” value in assay [1] was “does not increase the ATP-synthase-dependent component of the respiration”. Further, the “epibatine-stimulated ATP production” value in assay [2] (acute treatment, 3 h) is “not methyl B12 potentiates epibatine-stimulated ATP production”. For the same molecule, the “network analysis of regulated genes (protein-protein interactions)” value in assay [3] was “No network representation of oxidative phosphorylation genes is possible”.
